Laboratory results as given in patent publication US11414431B2, “Substituted pyrazolo[1,5-a]pyrimidines as TYK2 inhibitors” (Nimbus Lakshmi, Inc., priority 2018, dated 2022).

What was measured:
TYK2 = TYK2 (Homo sapiens (Human), UniProt P29597); experiment: TYK2 Radioactive Kinase Assay; format: biochemical; conditions: compound at 10 μM; peptide substrate […]; read-out: TYK2 (% Inhibition at 10 μM)
JAK2 = JAK2 (Homo sapiens (Human), UniProt O60674); experiment: JAK2 Radioactive Kinase Assay; format: biochemical; conditions: compound at 10 μM; substrate poly[Glu:Tyr] (4:1); read-out: JAK2 (% Inhibition at 10 μM)
JAK2, sequence (O60674 whole entry): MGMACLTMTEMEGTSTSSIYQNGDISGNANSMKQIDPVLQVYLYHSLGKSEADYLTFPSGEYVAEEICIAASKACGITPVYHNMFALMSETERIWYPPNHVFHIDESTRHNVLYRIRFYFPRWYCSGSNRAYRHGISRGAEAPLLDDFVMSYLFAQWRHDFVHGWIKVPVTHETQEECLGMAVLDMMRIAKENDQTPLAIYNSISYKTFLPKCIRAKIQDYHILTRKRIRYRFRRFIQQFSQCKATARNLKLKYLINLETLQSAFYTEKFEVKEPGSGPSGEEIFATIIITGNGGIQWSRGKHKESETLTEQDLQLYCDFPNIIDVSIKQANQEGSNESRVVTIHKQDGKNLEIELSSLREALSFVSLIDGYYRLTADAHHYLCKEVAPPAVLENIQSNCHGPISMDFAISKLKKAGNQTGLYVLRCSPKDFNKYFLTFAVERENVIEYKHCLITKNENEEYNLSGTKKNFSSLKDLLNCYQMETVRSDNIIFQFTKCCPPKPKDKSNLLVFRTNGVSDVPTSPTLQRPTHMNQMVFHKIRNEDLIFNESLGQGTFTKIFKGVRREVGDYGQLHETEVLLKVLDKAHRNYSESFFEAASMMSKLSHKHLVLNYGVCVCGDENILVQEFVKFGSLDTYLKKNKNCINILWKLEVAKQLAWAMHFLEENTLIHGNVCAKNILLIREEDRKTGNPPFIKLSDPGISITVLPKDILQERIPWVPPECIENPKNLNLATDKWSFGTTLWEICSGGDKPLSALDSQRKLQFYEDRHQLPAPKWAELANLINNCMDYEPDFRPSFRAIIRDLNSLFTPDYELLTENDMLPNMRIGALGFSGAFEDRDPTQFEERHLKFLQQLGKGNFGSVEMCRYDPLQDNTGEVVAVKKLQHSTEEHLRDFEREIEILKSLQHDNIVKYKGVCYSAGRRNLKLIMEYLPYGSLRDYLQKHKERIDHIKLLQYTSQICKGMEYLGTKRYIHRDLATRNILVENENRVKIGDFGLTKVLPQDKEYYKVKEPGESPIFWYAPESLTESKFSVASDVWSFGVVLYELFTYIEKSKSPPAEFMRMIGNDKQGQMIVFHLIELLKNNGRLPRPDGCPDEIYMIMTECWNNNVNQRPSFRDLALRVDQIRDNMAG
Method: Peptide substrate, [[…]], (20 μM) was prepared in reaction buffer (20 mM Hepes pH 7.5, 10 mM MgCl2, 1 mM EGTA, 0.02% Brij35, 0.02 mg/mL BSA, 0.1 mM […], 2 mM DTT, 1% DMSO. TYK2 (Invitrogen) kinase was added, followed by compounds in DMSO. 33PATP was added to initiate the reaction in ATP at […]. Kinase reaction was incubated for 120 min at room temp and reactions were spotted onto P^81 ion exchange paper (Whatman #3698-915), and then washed extensively in 0.75% phosphoric acid, prior to reading the radioactivity counts. For JAK2 (Invitrogen) kinase assay the peptide substrate poly[Glu:Tyr] (4:1), 0.2 mg/mL was used, in the reaction carried out the same as for TYK2.

[1] = target: human TYK2 (JH2domain-pseudokinase) (Homo sapiens (Human), UniProt P29597); experiment: TYK2 JH2 Domain Binding Assay (KINOMEscan); conditions: 11-point 3-fold dilution, top concentration 30,000 nM, duplicate; read-out: hTYK2_JH2_Binding (Kd; nM)
human TYK2 (JH2domain-pseudokinase), sequence (P29597 556-888): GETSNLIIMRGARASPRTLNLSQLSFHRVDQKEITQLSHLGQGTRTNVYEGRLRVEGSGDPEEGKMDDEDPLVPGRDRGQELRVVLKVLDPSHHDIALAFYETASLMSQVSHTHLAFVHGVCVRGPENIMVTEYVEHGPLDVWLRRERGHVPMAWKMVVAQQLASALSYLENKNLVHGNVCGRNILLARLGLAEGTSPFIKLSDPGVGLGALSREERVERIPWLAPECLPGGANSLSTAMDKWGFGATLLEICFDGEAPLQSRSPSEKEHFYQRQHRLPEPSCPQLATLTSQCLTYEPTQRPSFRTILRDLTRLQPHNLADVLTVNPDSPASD
Outline: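 KINOMEscan competition binding: HEK293-expressed NFkB-fused TYK2 JH2 (G556–D888), DNA-tagged, against immobilized ligand beads, 1 h shaking at room temperature, 0.9% DMSO. Bound kinase quantified by qPCR.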

[2] = tested on: IL-12 induced STAT4 phosphorlyation mediated by TYK2/JAK2; experiment: IL-12 Induced pSTAT4 in Human PBMC; format: cell-based; conditions: 0.5 h, 1.7 ng/mL IL-12 for 30 minutes
Outline: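 pSTAT4 and total STAT4 quantified by MSD in lysates of cryopreserved human PBMC after 30-minute stimulation with 1.7 ng/mL IL-12 (final). Compound was added 1 hr beforehand at 37° C, 0.1% DMSO final.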

TYK2, sequence (P29597 whole entry): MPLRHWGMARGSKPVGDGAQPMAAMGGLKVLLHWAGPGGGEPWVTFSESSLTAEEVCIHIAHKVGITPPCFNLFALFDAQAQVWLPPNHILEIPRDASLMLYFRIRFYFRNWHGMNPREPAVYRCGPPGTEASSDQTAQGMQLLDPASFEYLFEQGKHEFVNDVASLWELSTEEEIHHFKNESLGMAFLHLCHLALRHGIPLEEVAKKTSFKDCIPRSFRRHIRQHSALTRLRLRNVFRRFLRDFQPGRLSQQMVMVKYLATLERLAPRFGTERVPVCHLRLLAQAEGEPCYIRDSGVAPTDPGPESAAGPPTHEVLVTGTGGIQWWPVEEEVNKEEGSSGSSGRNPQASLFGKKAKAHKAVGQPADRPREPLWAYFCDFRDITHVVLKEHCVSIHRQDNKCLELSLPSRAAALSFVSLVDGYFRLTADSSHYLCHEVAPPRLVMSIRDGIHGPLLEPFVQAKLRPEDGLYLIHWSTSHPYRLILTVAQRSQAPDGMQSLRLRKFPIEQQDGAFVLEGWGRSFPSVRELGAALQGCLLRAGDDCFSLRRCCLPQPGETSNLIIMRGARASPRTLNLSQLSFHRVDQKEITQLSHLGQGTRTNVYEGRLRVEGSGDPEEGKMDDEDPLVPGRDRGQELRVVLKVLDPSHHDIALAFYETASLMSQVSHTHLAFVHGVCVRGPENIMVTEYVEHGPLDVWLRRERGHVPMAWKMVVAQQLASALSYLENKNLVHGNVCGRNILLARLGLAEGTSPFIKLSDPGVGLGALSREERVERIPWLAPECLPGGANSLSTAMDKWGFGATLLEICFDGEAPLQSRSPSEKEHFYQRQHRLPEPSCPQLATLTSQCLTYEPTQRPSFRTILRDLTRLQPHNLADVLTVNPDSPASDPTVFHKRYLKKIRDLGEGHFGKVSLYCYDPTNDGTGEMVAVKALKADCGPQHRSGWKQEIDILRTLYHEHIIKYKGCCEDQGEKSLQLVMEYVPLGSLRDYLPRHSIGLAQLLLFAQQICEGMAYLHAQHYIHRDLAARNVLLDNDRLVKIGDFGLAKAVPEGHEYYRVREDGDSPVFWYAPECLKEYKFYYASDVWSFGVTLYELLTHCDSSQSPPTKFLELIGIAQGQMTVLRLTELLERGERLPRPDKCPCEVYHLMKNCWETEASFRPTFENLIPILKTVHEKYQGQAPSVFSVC

Row | SMILES | inhibition at 10 µM (TYK2) | inhibition at 10 µM (JAK2) | Kd [1] | IC50 [2]
1 | CNc1cc(Nc2cccn([C@H]3CCCOC3)c2=O)nc2c(C(=O)N[C@@H]3CCC[C@@](C)(OC)C3)cnn12 [Compound I-94, N-((1R,3R)-3-Methoxy-3-methylcyclohexyl)-7-(methylamino)-5-((2-oxo-1-((S)-tetrahydro-2H-pyran-3-yl)-1,2-dihydropyridin-3-yl)amino)pyrazolo[1,5-a]pyrimidine-3-carboxamide] | < 50% | < 50% | 1 to 10 nM | 
3 | CNc1cc(Nc2cccn([C@H]3CCCOC3)c2=O)nc2c(C(=O)N[C@H]3CCC[C@](C)(OC)C3)cnn12 [Compound I-95, N-((1S,3S)-3-Methoxy-3-methylcyclohexyl)-7-(methylamino)-5-((2-oxo-1-((S)-tetrahydro-2H-pyran-3-yl)-1,2-dihydropyridin-3-yl)amino)pyrazolo[1,5-a]pyrimidine-3-carboxamide] | < 50% | < 50% | 1 to 10 nM | 
4 | CNc1cc(Nc2cccn([C@H]3CCOC[C@H]3OC)c2=O)nc2c(-c3cn(C(C)C)nn3)cnn12 [Compound I-117, 3-((3-(1-Isopropyl-1H-1,2,3-triazol-4-yl)-7-(methylamino)pyrazolo[1,5-a]pyrimidin-5-yl)amino)-1-((3S,4S)-3-methoxytetrahydro-2H-pyran-4-yl)pyridin-2(1H)-one] | < 50% | < 50% | > 10 nM | 
5 | CNc1cc(Nc2cccn(C3CC(F)(F)C3)c2=O)nc2c(C(=O)N[C@H]3CC[C@@H]3OC)cnn12 [Compound I-47, 5-((1-(3,3-Difluorocyclobutyl)-2-oxo-1,2-dihydropyridin-3-yl)amino)-N-((1S,2S)-2-methoxycyclobutyl)-7-(methylamino)pyrazolo[1,5-a]pyrimidine-3-carboxamide] | < 50% | < 50% | > 10 nM | 

Continued, values first:

Row | inhibition at 10 µM (TYK2) | inhibition at 10 µM (JAK2) | Kd [1] | IC50 [2] | SMILES
6 | < 50% | < 50% | < 0.2 nM | > 1 µM | CNc1cc(Nc2cccn(C3CCC[C@@](C)(O)C3)c2=O)nc2c(C(=O)NC3CC3)cnn12 (stereo in doubt) [Compound I-1, N-Cyclopropyl-5-((1-(3-hydroxy-3-methylcyclohexyl)-2-oxo-1,2-dihydropyridin-3-yl)amino)-7-(methylamino)pyrazolo[1,5-a]pyrimidine-3-carboxamide]
7 | < 50% | < 50% | < 0.2 nM |  | CNc1cc(-c2cn(C3CCOCC3)c3ncc(F)cc23)nc2c(C(=O)N[C@H]3CC[C@@H]3O)cnn12 [Compound I-18, 5-(5-Fluoro-1-(tetrahydro-2H-pyran-4-yl)-1H-pyrrolo[2,3-b]pyridin-3-yl)-N-((1S,2S)-2-hydroxycyclobutyl)-7-(methylamino)pyrazolo[1,5-a]pyrimidine-3-carboxamide]
8 | < 50% | < 50% | 0.2 to 1 nM |  | CNc1cc(Nc2cccn(C3CC(F)(F)C3)c2=O)nc2c(C(=O)N[C@H]3CC[C@@H](O)C3)cnn12 [Compound I-37, 5-((1-(3,3-Difluorocyclobutyl)-2-oxo-1,2-dihydropyridin-3-yl)amino)-N-((1S,3R)-3-hydroxycyclopentyl)-7-(methylamino)pyrazolo[1,5-a]pyrimidine-3-carboxamide]
9 | < 50% | < 50% | 0.2 to 1 nM |  | CNc1cc(-c2cn(C3CCOCC3)c3ncc(F)cc23)nc2c(C(=O)N[C@@H]3CC[C@H]3O)cnn12 [Compound I-19, 5-(5-Fluoro-1-(tetrahydro-2H-pyran-4-yl)-1H-pyrrolo[2,3-b]pyridin-3-yl)-N-((1R,2R)-2-hydroxycyclobutyl)-7-(methylamino)pyrazolo[1,5-a]pyrimidine-3-carboxamide]
10 | < 50% | < 50% | < 0.2 nM | < 0.1 µM | CNc1cc(Nc2cccn(C3CC(F)(F)C3)c2=O)nc2c(C(=O)N[C@@H]3CC[C@H]3OC)cnn12 [Compound I-48, 5-((1-(3,3-Difluorocyclobutyl)-2-oxo-1,2-dihydropyridin-3-yl)amino)-N-((1R,2R)-2-methoxycyclobutyl)-7-(methylamino)pyrazolo[1,5-a]pyrimidine-3-carboxamide]
